Some test systems named below: M14 melanoma; SF-295 CNS; UO-31 renal; EKVX NSCLC; NCI-H460 lung; SF-268 CNS; HT29 colon; OVCAR-8 ovarian; SNB-75 CNS; SR leukemia; NCI-H23 lung; LOX IMVI melanoma.
Common to all, as to assay: NCI anticancer screen, dose series, 48 h

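All cell lines were grown in 96-well plates and treated with compound for 48 hours. TGI: total growth inhibition.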

Take `COC1OC(CO)C(O)C(OC(=O)c2cc(O)c(O)c(O)c2)C1OC(=O)c1cc(O)c(O)c(O)c1` (stereo unspecified): the TGI was more than 100 µM with M14 melanoma; 42.1 µM in the experiment with SF-295 CNS; more than 100 µM in the experiment on UO-31 renal; more than 100 µM in the experiment with EKVX NSCLC; more than 100 µM in the experiment on NCI-H460 lung; more than 100 µM in the experiment with SF-268 CNS. In addition, the TGI in the experiment with HT29 colon is more than 100 µM; in the experiment on OVCAR-8 ovarian it was more than 100 µM; with SNB-75 CNS, more than 100 µM; in the experiment with SR leukemia it was more than 100 µM; with NCI-H23 lung, more than 100 µM; in the experiment on LOX IMVI melanoma, 68.2 µM.

Take `CC(=O)Nc1ccc2c(C)c3c4ccccc4n(C)c3nc2n1`: the TGI in the experiment on M14 melanoma is 52.3 µM; in the experiment on SF-295 CNS it was 53.4 µM; in the experiment on UO-31 renal it was 32.3 µM; in the experiment with EKVX NSCLC, more than 100 µM; with NCI-H460 lung, 15.5 µM; in the experiment with SF-268 CNS, 64.4 µM. Besides, the TGI in the experiment with HT29 colon was more than 100 µM; in the experiment with OVCAR-8 ovarian it was more than 100 µM; with SNB-75 CNS, more than 100 µM; in the experiment with SR leukemia, 45.6 µM; with NCI-H23 lung it was 53.4 µM; in the experiment with LOX IMVI melanoma, 34.2 µM.

`O=C(Cc1ccccc1)c1ccc2[nH]c(=O)oc2c1`: the TGI in the experiment on M14 melanoma is more than 100 µM; in the experiment with SF-295 CNS it was more than 100 µM; in the experiment on EKVX NSCLC, 64.4 µM; with NCI-H460 lung it was more than 100 µM; in the experiment on SF-268 CNS, more than 100 µM; with HT29 colon, more than 100 µM. Besides, the TGI in the experiment on OVCAR-8 ovarian was more than 100 µM; in the experiment with SNB-75 CNS, 33.4 µM; in the experiment with SR leukemia, more than 100 µM; in the experiment on NCI-H23 lung, more than 100 µM; in the experiment with LOX IMVI melanoma it was more than 100 µM.

Regarding `O=C1/C(=C\c2cccc(Oc3ccccc3)c2)SC(c2ccccc2)N1c1ccc(Cl)cc1` (stereo unspecified), the TGI in the experiment with M14 melanoma, in the experiment on SF-295 CNS, with UO-31 renal, in the experiment on EKVX NSCLC, in the experiment on NCI-H460 lung and in the experiment on SF-268 CNS was more than 100 µM in each case. Besides, the TGI with HT29 colon is more than 100 µM; with OVCAR-8 ovarian, more than 100 µM; in the experiment with SNB-75 CNS, more than 100 µM; with SR leukemia, more than 55.9 µM; with NCI-H23 lung it was 98.7 µM; with LOX IMVI melanoma, more than 100 µM.

Regarding `CCN(CC)CCS(=O)c1c2cc(OC)ccc2nc2ccc(OC)cc12` (stereo unspecified), the TGI with M14 melanoma was 26.3 µM; in the experiment with SF-295 CNS it was 44.2 µM; in the experiment with UO-31 renal it was 5.43 µM; in the experiment on EKVX NSCLC, 30.8 µM; in the experiment on NCI-H460 lung, more than 82.2 µM; in the experiment with SF-268 CNS it was 23.5 µM. In addition, the TGI was 12 µM in the experiment with HT29 colon; 21 µM with OVCAR-8 ovarian; 36 µM with SNB-75 CNS; more than 23.7 µM in the experiment on SR leukemia; 41.3 µM with NCI-H23 lung; more than 42.9 µM in the experiment on LOX IMVI melanoma.

With `O=C(O)CN1CCN(CC(=O)O)CCN(CC(=O)O)CCN(CC(=O)O)CC1`, the TGI in the experiment with M14 melanoma, in the experiment on SF-295 CNS, with UO-31 renal, in the experiment with EKVX NSCLC, with NCI-H460 lung and in the experiment with SF-268 CNS was more than 100 µM throughout. Besides, the TGI in the experiment with HT29 colon, in the experiment on OVCAR-8 ovarian, with SNB-75 CNS, in the experiment on SR leukemia, with NCI-H23 lung and in the experiment on LOX IMVI melanoma was more than 100 µM in each case.

Consider `CC(=O)Nc1ccc(C2[C@H]3C(=O)N(c4ccc(Cc5ccc(N6C(=O)[C@@H]7ON(c8ccccc8)C(c8ccc(NC(C)=O)cc8)[C@@H]7C6=O)cc5)cc4)C(=O)[C@H]3ON2c2ccccc2)cc1` (stereo partly specified), for which the TGI in the experiment with M14 melanoma was 79.8 µM; in the experiment on SF-295 CNS, more than 100 µM; in the experiment on UO-31 renal, more than 100 µM; in the experiment with EKVX NSCLC it was more than 100 µM; in the experiment with NCI-H460 lung it was more than 100 µM; in the experiment on SF-268 CNS, more than 100 µM. The TGI with HT29 colon, in the experiment with OVCAR-8 ovarian, with SNB-75 CNS, with SR leukemia, in the experiment with NCI-H23 lung and in the experiment with LOX IMVI melanoma was more than 100 µM each time.

As to `[N-]=[N+]=Nc1ccc2c(c1)Sc1ccccc1N2CCCCCl`, the TGI in the experiment with M14 melanoma, in the experiment on SF-295 CNS, in the experiment on UO-31 renal, with EKVX NSCLC, in the experiment on NCI-H460 lung and in the experiment on SF-268 CNS was more than 100 µM each time. The TGI in the experiment with HT29 colon, with OVCAR-8 ovarian, in the experiment on SNB-75 CNS, in the experiment with SR leukemia, in the experiment with NCI-H23 lung and in the experiment on LOX IMVI melanoma was more than 100 µM throughout.

Turning to `CC1=C(OC2OC(CO)C(O)C(O)C2O)C(=O)C[C@H]2C1=CC[C@@H]1[C@@]2(C)C(=O)C[C@]2(C)[C@@H]([C@@](C)(O)C(=O)CCC(C)(C)O)[C@H](O)C[C@@]12C` (stereo partly specified), the TGI in the experiment with M14 melanoma, in the experiment with SF-295 CNS, in the experiment on UO-31 renal, with EKVX NSCLC, in the experiment on NCI-H460 lung and with SF-268 CNS was more than 100 µM throughout. Further, the TGI in the experiment with HT29 colon, in the experiment on OVCAR-8 ovarian, in the experiment with SNB-75 CNS, in the experiment with SR leukemia, in the experiment on NCI-H23 lung and in the experiment with LOX IMVI melanoma was more than 100 µM each time.

For `CN(C)CCO/N=C1/C=C2CC[C@H]3[C@@H]4CC[C@H](O)[C@@]4(C)CC[C@@H]3[C@@]2(C)CC1`, the TGI in the experiment on M14 melanoma was more than 37 µM; in the experiment with SF-295 CNS, 32.4 µM; in the experiment on UO-31 renal it was 28.2 µM; with EKVX NSCLC, 68.6 µM; in the experiment on NCI-H460 lung it was 21.9 µM; in the experiment on SF-268 CNS it was 31.6 µM. Also, the TGI with HT29 colon is 5.53 µM; in the experiment on OVCAR-8 ovarian, 45.5 µM; with SNB-75 CNS it was 10.4 µM; in the experiment on SR leukemia, 19.6 µM; with NCI-H23 lung, 33.6 µM; in the experiment on LOX IMVI melanoma it was 60.2 µM.

Turning to `CCOP(=O)(OCC)/C(C#N)=C/c1ccco1`, the TGI with M14 melanoma, in the experiment on SF-295 CNS, in the experiment with UO-31 renal, in the experiment on EKVX NSCLC, in the experiment with NCI-H460 lung and in the experiment on SF-268 CNS was more than 100 µM throughout. Besides, the TGI in the experiment with HT29 colon, with OVCAR-8 ovarian, in the experiment on SNB-75 CNS, with SR leukemia, in the experiment on NCI-H23 lung and with LOX IMVI melanoma was more than 100 µM in each case.

The record behind these values is PubChem BioAssay (NCI).
